# Source: patent publication US10654807B2, “Toll-like receptor 8 agonists” (The University Of Kansas, priority 2013, dated 2020)
# “Also recorded” adds a separate entry of the source.
# System: human ex vivo blood
# Assay: not given
# Settings: transcriptomal profiling
Structure (SMILES),IFN-α transcription,induction of proinflammatory cytokine transcripts
"CCCCc1cc2c(o1)c(N)nc1ccccc12 [Compound A8d, 2-butylfuro[2,3-c]quinolin-4-amine]",induced only by Compound 2,strong induction of proinflammatory cytokine transcripts (including IL-12 and IL-18)

# Biological target: T1, human TLR8 (Homo sapiens, UniProt Q9NR97)
# T1 construct: HEK293 cells stably co-transfected with the appropriate hTLR, MD2, and secreted alkaline phosphatase (sAP); expressed in transfected cells; host or cells: HEK293 (HEK-Blue™)
# T1 sequence (Q9NR97 27-1041): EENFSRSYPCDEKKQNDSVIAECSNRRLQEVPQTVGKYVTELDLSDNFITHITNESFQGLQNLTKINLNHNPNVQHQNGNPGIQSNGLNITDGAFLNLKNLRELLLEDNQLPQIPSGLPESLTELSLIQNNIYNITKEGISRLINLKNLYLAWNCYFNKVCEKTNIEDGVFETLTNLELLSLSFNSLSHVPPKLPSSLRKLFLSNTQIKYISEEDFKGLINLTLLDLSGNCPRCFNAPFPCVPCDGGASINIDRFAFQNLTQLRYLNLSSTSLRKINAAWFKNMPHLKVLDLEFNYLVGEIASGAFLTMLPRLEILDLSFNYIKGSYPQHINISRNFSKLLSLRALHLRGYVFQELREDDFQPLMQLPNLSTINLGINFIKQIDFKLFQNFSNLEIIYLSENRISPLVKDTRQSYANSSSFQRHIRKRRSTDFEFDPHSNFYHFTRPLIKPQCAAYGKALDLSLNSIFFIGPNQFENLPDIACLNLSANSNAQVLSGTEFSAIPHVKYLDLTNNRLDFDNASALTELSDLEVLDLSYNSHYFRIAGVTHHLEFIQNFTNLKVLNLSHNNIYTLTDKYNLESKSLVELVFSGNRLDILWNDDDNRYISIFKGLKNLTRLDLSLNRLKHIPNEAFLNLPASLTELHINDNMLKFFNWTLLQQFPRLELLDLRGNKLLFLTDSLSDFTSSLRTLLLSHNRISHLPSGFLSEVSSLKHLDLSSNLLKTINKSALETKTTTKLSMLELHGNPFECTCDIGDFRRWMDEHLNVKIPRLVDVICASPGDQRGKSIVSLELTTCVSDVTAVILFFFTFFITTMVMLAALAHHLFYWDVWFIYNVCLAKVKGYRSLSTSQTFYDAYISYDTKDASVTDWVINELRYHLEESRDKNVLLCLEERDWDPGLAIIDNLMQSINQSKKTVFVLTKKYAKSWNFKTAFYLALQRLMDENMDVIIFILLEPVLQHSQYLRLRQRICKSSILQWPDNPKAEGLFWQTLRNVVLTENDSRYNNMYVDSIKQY
# Assay: human TLR8-specific HEK-Blue reporter gene assay (NF-κB induction)
# Type: cell-based
# Settings: TLR8 primary screen
# Excerpt: (§1) Human TLR2/-3/-4/-5/-7/-8/-9 Reporter Gene Assays (NF-κB Induction):
# (§2) The induction of NF-κB was quantified using human TLR2/-3/-4/-5/-7/-8/-9-specific HEK-Blue™ reporter gene assays as previously described. HEK293 cells stably co-transfected with the appropriate hTLR, MD2, and secreted alkaline phosphatase (sAP), were maintained in HEK-Blue™ Selection medium containing zeocin and normocin. Stable expression of secreted alkaline phosphatase (sAP) under control of NF-κB/AP-1 promoters is inducible by appropriate TLR agonists, and extracellular sAP in the supernatant is proportional to NF-κB induction.
row,Structure (SMILES),TLR8 agonistic activity
1,"Cc1cc2c(o1)c(N)nc1ccccc12 [Compound A8b, 2-methylfuro[2,3-c]quinolin-4-amine]",lower agonistic potencies
2,"Nc1nc2ccccc2c2cc(Cc3ccccc3)oc12 [Compound A8o, 2-benzylfuro[2,3-c]quinolin-4-amine]",inactive
3,"CCCCCCc1cc2c(o1)c(N)nc1ccccc12 [Compound A8f, 2-hexylfuro[2,3-c]quinolin-4-amine]",lower agonistic potencies
4,"CCCCc1cc2ccnc(N)c2o1 [Compound A28b, 2-butylfuro[2,3-c]pyridin-7-amine]",retained TLR8-selective agonistic activities; also recorded: feeble activity
5,"CC(O)Cc1cc2c(o1)c(N)nc1ccccc12 (centres unmarked) [Compound A8v, 1-(4-aminofuro[2,3-c]quinolin-2-yl)propan-2-ol]",do not display TLR8 agonism
6,"CCCc1cc2c(o1)c(N)nc1ccccc12 [Compound A8c, 2-propylfuro[2,3-c]quinolin-4-amine]",lower agonistic potencies
7,"CCCCc1cc2c(nc(N)c3ccccc32)o1 [Compound A18, 2-butylfuro[2,3-c]isoquinolin-5-amine]",inactive
8,"CC(C)CC(O)c1cc2c(o1)c(N)nc1ccccc12 (centres unmarked) [Compound A8u, 1-(4-aminofuro[2,3-c]quinolin-2-yl)-3-methylbutan-1-ol]",do not display TLR8 agonism
9,"Nc1nc2ccccc2c2cc(-c3ccccc3)oc12 [Compound A8n, 2-phenylfuro[2,3-c]quinolin-4-amine]",inactive
10,"Nc1nc2ccccc2c2cc(CCCO)oc12 [Compound A8r, 3-(4-aminofuro[2,3-c]quinolin-2-yl)propan-1-ol]",do not display TLR8 agonism
11,"Nc1nc2ccccc2c2ccoc12 [Compound A8a, furo[2,3-c]quinolin-4-amine]",inactive
12,"CCCc1cc2ccnc(N)c2o1 [Compound A28a, 2-propylfuro[2,3-c]pyridin-7-amine]",retained TLR8-selective agonistic activities; also recorded: feeble activity
13,"CCCCCc1cc2c(o1)c(N)nc1ccccc12 [Compound A8e, 2-pentylfuro[2,3-c]quinolin-4-amine]",lower agonistic potencies

# Same assay, conditions: cell-based TLR8-specific NF-κB transactivation assay; read-out: TLR8 agonistic potency EC50
row,Structure (SMILES),EC50
1,"CCCCc1cc2ccnc(N)c2o1 [Compound A28b, 2-butylfuro[2,3-c]pyridin-7-amine]",46.2 µM
2,"CCCc1cc2ccnc(N)c2o1 [Compound A28a, 2-propylfuro[2,3-c]pyridin-7-amine]",24.4 µM

# Same assay, conditions: human TLR8-specific reporter gene assays, Table 1
row,Structure (SMILES),Agonistic Activity EC50 (μM) TLR8
1,"CCCCCc1c(N)nc2ccccc2c1C [Compound 21a, 4-Methyl-3-pentylquinolin-2-amine]",Inactive^a
2,"CCCCCc1c(N)nc2ccccc2c1CC [Compound 21b, 4-Ethyl-3-pentylquinolin-2-amine]",Inactive
3,"CCCCCCc1cc2ccccc2nc1N [Compound 14c, 3-Hexylquinolin-2-amine]",Inactive
4,"CCCCCc1cc(N)nc2ccccc12 [Compound 27b, 4-Pentylquinolin-2-amine]",Inactive
5,"CCCCCOc1cc(N)nc2ccccc12 [Compound 24b, 4-(Pentyloxy)quinolin-2-amine]",Inactive
6,"CCCCOc1cc(N)nc2ccccc12 [Compound 24a, 4-(Butyloxy)quinolin-2-amine]",Inactive
7,"CCCCCc1c(N)nc2ccccc2c1CCC(C)C [Compound 21c, 4-Isopentyl-3-pentylquinolin-2-amine]",Inactive
8,"CCCCc1cc(N)nc2ccccc12 [Compound 27a, 4-Butylquinolin-2-amine]",Inactive

# Same assay, conditions: human TLR8-specific reporter gene assays, Table 1; read-out: Agonistic Activity EC50 (μM) TLR8
row,Structure (SMILES),EC50
1,"CC(C)CCOc1cc2ccccc2nc1N [Compound 6h, 3-(Isopentyloxy)quinolin-2-amine]",50 µM
2,"CCCCOc1cc2ccccc2nc1N [Compound 6, 3-(Butyloxy)quinolin-2-amine]",2.18 µM
3,"CCC/C=C/c1cc2ccccc2nc1N [Compound 14d, (E)-3-(Pent-1-en-1-yl)quinolin-2-amine]",2.67 µM
4,"CCCC#Cc1cc2ccccc2nc1N [Compound 14f, 3-(Pent-1-yn-1-yl)quinolin-2-amine]",13 µM
5,"CCCCNc1cc2ccccc2nc1N [Compound 9, N^3-Butylquinoline-2,3-diamine]",4.28 µM
6,"CCCCCOc1cc2ccccc2nc1N [Compound 6d, 3-(Pentyloxy)quinolin-2-amine]",7 µM
7,"CCCCCCOc1cc2ccccc2nc1N [Compound 6e, 3-(Hexyloxy)quinolin-2-amine]",50 µM
8,"CC(C)COc1cc2ccccc2nc1N [Compound 6g, 3-(Isobutyloxy)quinolin-2-amine]",50 µM

# System: whole human blood
# Assay: proinflammatory cytokine induction in human blood
# Type: cell-based
# Settings: FIGS. 6A-6D, Compound 2 as reference
row,Structure (SMILES),"induction of TNF-α, IL-1β, IL-6 and IL-8"
1,"CCCCc1cc2c(o1)c(N)nc1ccccc12 [Compound A8d, 2-butylfuro[2,3-c]quinolin-4-amine]","induce TNF-α, IL-β, IL-6 and IL-8 in a dose-dependent manner, albeit with a lower potency than Compound 2"

# System: human peripheral blood mononuclear cells
# Assay: cytokine/chemokine induction in human PBMCs (multiplexed bead array immunoassays)
# Type: cell-based
# Settings: 41-analyte multiplexed assay, human PBMCs, FIG. 9
# Procedure: Immunoassays for Cytokines:
# Fresh human peripheral blood mononuclear cells (hPBMC) were isolated from human blood obtained by venipuncture with informed consent and as per institutional guidelines on Ficoll-Hypaque gradients. Aliquots of PBMCs (10^5 cells in 100 μL/well) were stimulated for 12 h with graded concentrations of test compounds. Supernatants were isolated by centrifugation, and were assayed in triplicates using analyte-specific multiplexed cytokine/chemokine bead array assays. PBMC supernatants were also analyzed for 41 chemokines and cytokines (EGF, Eotaxin, FGF-2, Fit-3 ligand, Fractalkine, G-CSF, GM-CSF, GRO, IFN-α2, IFN-γ, IL-10, IL-12 (p40), IL-12 (p70), IL-13, IL-15, IL-17, IL-1ra, IL-1α, IL-1β, IL-2, IL-3, IL-4, IL-5, IL-6, IL-7, IL-8, IL-9, IP-10, MCP-1, MCP-3, MDC (CCL22), MIP-1α, MIP-1β, PDGF-AA, PDGF-AB/BB, RANTES, TGFα, TNF-α, TNF-β, VEGF, sCD40L) using a magnetic bead-based multiplexed assay kit (Milliplex MAP Human Cytokine/Chemokine kit). Data were acquired and processed on a MAGPIX instrument (EMD Millipore, Billerica, Mass.) with an intra-assay coefficients of variation ranging from 4-8% for the 41 analytes.
row,Structure (SMILES),"induction of G-CSF, GRO, MIP-1α and MIP-1β"
1,"CCCCc1nc2c(N)nc3ccccc3c2n1Cc1ccccc1 [1-benzyl-2-butyl-1H-imidazo[4,5-c]quinolin-4-amine]",did not

# Same assay, conditions: human PBMCs as well as whole human blood, FIGS. 3A-3T
row,Structure (SMILES),cytokine/chemokine induction profile
1,"CCCCCc1cc2ccccc2nc1N [Compound 14b, 3-Pentylquinolin-2-amine]","induction of a specific set of chemokines and proinflammatory cytokines, including interleukins 12 and 18"

# System: TLR7/TLR8
# Assay: not given
# Settings: background statement; cited from earlier work
row,Structure (SMILES),TLR7/TLR8 agonism profile described
1,CCCN(CCC)C(=O)C1=Cc2ccc(-c3ccc(C(=O)N4CCCC4)cc3)cc2N=C(N)C1 [VTX-2337],mixed TLR7/TLR8-agonism

# System: human TLR2/3/4/5/7/8/9 and NOD1/2
# Assay: primary screens: panel of reporter gene assays for TLR and NOD modulatory activities
# Settings: human TLR2/3/4/5/7/8/9 and NOD1/2 reporter gene assays
# Excerpt: as §1, §2
row,Structure (SMILES),activity in primary screens (reporter gene panel)
1,"NCc1cc2c(o1)c(N)nc1ccccc12 [Compound A8x, 2-(aminomethyl)furo[2,3-c]quinolin-4-amine]",none of these compounds were active in any primary screens
2,"CCOCCc1cc2c(o1)c(N)nc1ccccc12 [Compound A8w, 2-(2-ethoxyethyl)furo[2,3-c]quinolin-4-amine]",none of these compounds were active in any primary screens
3,"NCCc1cc2c(o1)c(N)nc1ccccc12 [Compound A8y, 2-(2-aminoethyl)furo[2,3-c]quinolin-4-amine]",none of these compounds were active in any primary screens

# System: human TLR2, TLR3, TLR4, TLR5, TLR7, TLR9, TLR10, Nod1 and Nod2
# Assay: counter-screens in reporter cell lines specific for other human TLRs and Nod1/2
# Type: cell-based
# Settings: not given
row,Structure (SMILES),activity in counter-screens / specificity for human TLR8
1,"CCCCSc1cc2ccccc2nc1N [Compound 12, 3-(Butylthio)quinolin-2-amine]",specific for human TLR8
2,"CCCCOc1cc2ccccc2nc1N [Compound 6, 3-(Butyloxy)quinolin-2-amine]",specific for human TLR8
3,"CCCCNc1cc2ccccc2nc1N [Compound 9, N^3-Butylquinoline-2,3-diamine]",specific for human TLR8

# System: human natural killer cells
# Assay: CD69 upregulation by flow cytometry in whole human blood
# Type: cell-based
# Settings: 16.5 h, FIG. 8
# Procedure: Flow-Cytometric Immunostimulation Experiments:
# CD69 upregulation was determined by flow cytometry. Briefly, heparin-anticoagulated whole blood samples were obtained by venipuncture from healthy human volunteers with informed consent and as per guidelines approved by the University of Kansas Human Subjects Experimentation Committee. […] Negative (endotoxin free water) controls were included in each experiment. Following incubation, 200 μL aliquots of anticoagulated whole blood were stained with 20 µL of fluorochrome-conjugated antibodies at 37° C. in the dark for 30 min. For triple color flow cytometry experiments, CD3-PE, CD56-APC, CD69-PE-Cy7 were used to analyze CD69 activation of each of the main peripheral blood lymphocyte populations: natural killer lymphocytes (NK cells: CD3^−CD56^+), cytokine-induced killer phenotype (CIK cells: CD3^+CD56^+), nominal B lymphocytes (CD3^−CD56^−), and nominal T lymphocytes (CD3^+CD56^−). Following staining, erythrocytes were lysed and leukocytes fixed in one step by mixing 200 μL of the samples in 4 mL pre-warmed Whole Blood Lyse/Fix Buffer (Becton-Dickinson Biosciences, San Jose, Calif.). After washing the cells twice at 200 g for 8 minutes in saline, the cells were transferred to a 96-well plate. […]
row,Structure (SMILES),CD69 expression on natural killer lymphocytes
1,"CCCCc1cc2c(o1)c(N)nc1ccccc12 [Compound A8d, 2-butylfuro[2,3-c]quinolin-4-amine]",absence of natural killer lymphocyte activation; also recorded: absence of CD69 upregulation
